Experimental data from publication PMC12527034, “R103 and R115 Affinity Mutants of ATeam ATP Biosensors” (Sensors (Basel, Switzerland), 2025).

Tests used:
ATeam3.10 (WT) [1] = target: T1, ATeam3.10 (WT) (Bacillus sp. PS3, UniProt A0A0M5MQR7); test: Steady-state FRET ratio ADP dose response of 0.125 uM purified ATeam3.10 sensor at room temperature in 50 mM MOPS-KOH pH 7.3, 50 mM KCl, 0.5 mM MgCl2, 0.05% Triton-X100 (4 to 9 replicates).; assay type: binding; conditions: n = 4; read-out: ADP Affinity Kapp
T1 construct: gene uncC; epsilon subunit flanked by mseCFP and mVenus; polyhistidine-tagged, expressed in E. coli BL21(DE3)
Method: (§1) Protein Characterization. […] Samples were measured with n = 4 to 9 replicates.
(§2) Apparent dissociation constants are summarized in (E).

ATeam3.10 R103A [2] = target: T2, ATeam3.10 R103A (Bacillus sp. PS3, UniProt A0A0M5MQR7, R103A); test: as above; assay type: binding; conditions: n = 4
T2 construct: gene uncC; epsilon subunit flanked by mseCFP and mVenus; polyhistidine-tagged
Method: as §1, §2

ATeam3.10 R103A/R115A [3] = target: T3, ATeam3.10 R103A/R115A (Bacillus sp. PS3, UniProt A0A0M5MQR7, R103A/R115A); test: as above; assay type: binding; conditions: n = 4
T3 construct: gene uncC; epsilon subunit flanked by mseCFP and mVenus; polyhistidine-tagged
Method: as §1, §2

ATeam3.10 R103A/R115E [4] = target: T4, ATeam3.10 R103A/R115E (Bacillus sp. PS3, UniProt A0A0M5MQR7, R103A/R115E); test: as above; assay type: binding; conditions: n = 4
T4 construct: gene uncC; epsilon subunit flanked by mseCFP and mVenus; polyhistidine-tagged
Method: as §1, §2

ATeam3.10 R103E [5] = target: T5, ATeam3.10 R103E (Bacillus sp. PS3, UniProt A0A0M5MQR7, R103E); test: as above; assay type: binding; conditions: n = 4
T5 construct: gene uncC; epsilon subunit flanked by mseCFP and mVenus; polyhistidine-tagged
Method: as §1, §2

ATeam3.10 R103E/R115A [6] = target: T6, ATeam3.10 R103E/R115A (Bacillus sp. PS3, UniProt A0A0M5MQR7, R103E/R115A); test: as above; assay type: binding; conditions: n = 4
T6 construct: gene uncC; epsilon subunit flanked by mseCFP and mVenus; polyhistidine-tagged
Method: as §1, §2

ATeam3.10 R115A [7] = target: T7, ATeam3.10 R115A (Bacillus sp. PS3, UniProt A0A0M5MQR7, R115A); test: as above; assay type: binding; conditions: n = 4
T7 construct: gene uncC; epsilon subunit flanked by mseCFP and mVenus; polyhistidine-tagged
Method: as §1, §2

ATeam3.10 R115E [8] = target: T8, ATeam3.10 R115E (Bacillus sp. PS3, UniProt A0A0M5MQR7, R115E); test: as above; assay type: binding; conditions: n = 4
T8 construct: gene uncC; epsilon subunit flanked by mseCFP and mVenus; polyhistidine-tagged
Method: as §1, §2

ATeam3.10 R103E/R115E [9] = target: T9, ATeam3.10 R103E/R115E (Bacillus sp. PS3, UniProt A0A0M5MQR7, R103E/R115E); test: biochemical; set-up: gene uncC; conditions: n = 4
Method: Assays were carried out at room temperature with 0.125 µM protein in assay buffer (50 mM MOPS-KOH, pH 7.3, 50 mM KCl, 0.5 mM MgCl2, 0.05% Triton-X100). ATP stocks were neutralized to pH 7, and a total MgCl2 concentration was added to maintain 0.5 mM free Mg^2+ [21]. Samples were prepared in clear-bottom, black 96-well plates (Greiner Bio-One, Monroe, NC, USA). Sensor protein and ATP at a concentration dictated by each point on the dose–response curve were added to a single well with assay buffer and allowed to equilibrate. Samples were measured with n = 4 to 9 replicates. Steady-state fluorescence was measured on a BioTek Synergy H4 using 420/50 nm excitation and 485/20 nm or 528/20 nm emission bandpass filters (BioTek, Winooski, VT, USA). Donor fluorescence lifetimes were measured using an Edinburgh Instruments FS5+ time-resolved fluorometer with an NKT-Fianium WhiteLaseMicro supercontinuum pulsed laser (Edinburgh Instruments, Livingston, UK). Donor fluorescence lifetime distribution analysis was carried out using the MemExp software [22, 23, 24].
ADP dose responses were measured using purified protein in solution. FRET ratios were calculated as sensitized acceptor emission-to-donor emission ratios. […] ADP dose response curves for (C) single and (D) double mutants.

HEK293 cells = test: Live-cell imaging of metabolic inhibition (sensitized FRET emission ratio); assay type: cell-based
Method: Microscopy. HEK293 cells were cultured in low-glucose Dulbecco’s modified Eagle’s medium supplemented with 10% cosmic calf serum (Gibco, Thermo Fisher Scientific, Waltham, MA, USA). For imaging studies, cells were plated on 18 mm #1.5 coverslips and transfected with Effectene (Qiagen, Germantown, MD, USA) or by the calcium phosphate method. Prior to imaging, cells were equilibrated for at least 20 min at room temperature in imaging solution (15 mM HEPES, pH 7.3, 1.25 mM NaH2PO4, 130 mM NaCl, 3 mM KCl, 2 mM CaCl2, 1 mM MgCl2, 3 mM NaHCO3) supplemented with a glucose concentration dependent on the specific experiment. Live-cell microscopy was carried out at room temperature on an Olympus IX83 inverted fluorescence microscope with a 20X/0.75 NA air objective illuminated by a Lumencor SpectraX light engine and imaged with an Andor Zyla 4.2 sCMOS camera. An ECFP/EYFP/mCherry multiband beamsplitter (Chroma 69008bs) was used with bandpass excitation and emission filters for each channel: cyan 438/29 nm and 470/24 nm; yellow 510/10 nm and 540/30 nm; sensitized FRET 438/29 nm and 540/30 nm; red 575/25 nm and 631/28 nm. Andor iQ3 software was used for image acquisition, and ImageJ/FIJI was used for image analysis. […] Cell masks were created using a threshold of two times the background and applied to background-subtracted images. […]

ATeam3.10 (WT) [10] = target: T1, ATeam3.10 (WT); test: Steady-state FRET ratio ATP dose response of 0.125 uM purified ATeam3.10 sensor at room temperature in 50 mM MOPS-KOH pH 7.3, 50 mM KCl, 0.5 mM free Mg2+, 0.05% Triton-X100 (4 to 9 replicates).; assay type: binding; conditions: SD, n = 4; read-out: ATP Affinity Kapp
Method: as §1
(§3) We measured the ATP dose–response curves for all combinations of single and double mutants consisting of R-to-A charge neutralization or R-to-E charge reversal (Table 1, Figure 2). […] The difference between our observations likely reflects the sensitivity of the ε subunit to the label used. Kato-Yamada used a relatively small Cy3 label with a cysteine mutant (Q107C) of the ε subunit, whereas the ε subunit is fused to two large fluorescent proteins in ATeam3.10. Despite this difference, the increase in affinity could still be of particular use for developing an ATeam-based sensor to detect the low levels of extracellular ATP [2, 3, 11, 13, 25].
(§4) Figure 2 ATeam3.10 R103 and R115 single and double mutants tune ATP affinity. ATP dose responses were measured using purified protein in solution. […] Apparent dissociation constants are summarized in (E).

ATeam3.10 R103A [11] = target: T2, ATeam3.10 R103A; test: as above; assay type: binding; conditions: SD, n = 4; read-out: ATP Affinity Kapp
Method: as §1, §3, §4

ATeam3.10 R103A/R115A [12] = target: T3, ATeam3.10 R103A/R115A; test: as above; assay type: binding; conditions: SD, n = 4; read-out: ATP Affinity Kapp
Method: as §1, §3, §4

ATeam3.10 R103A/R115E [13] = target: T4, ATeam3.10 R103A/R115E; test: as above; assay type: binding; conditions: SD, n = 4; read-out: ATP Affinity Kapp
Method: as §1, §3, §4

ATeam3.10 R103E [14] = target: T5, ATeam3.10 R103E; test: as above; assay type: binding; conditions: SD, n = 4; read-out: ATP Affinity Kapp
Method: as §1, §3, §4

ATeam3.10 R103E/R115A [15] = target: T6, ATeam3.10 R103E/R115A; test: as above; assay type: binding; conditions: SD, n = 4; read-out: ATP Affinity Kapp
Method: as §1, §3, §4

ATeam3.10 R115A [16] = target: T7, ATeam3.10 R115A; test: as above; assay type: binding; conditions: SD, n = 4; read-out: ATP Affinity Kapp
Method: as §1, §3, §4

ATeam3.10 R115E [17] = target: T8, ATeam3.10 R115E; test: as above; assay type: binding; conditions: SD, n = 4; read-out: ATP Affinity Kapp
Method: as §1, §3, §4

ATeam1.03 (WT) = target: T10, ATeam1.03 (WT) (Bacillus subtilis, UniProt P37812); test: Steady-state FRET ratio ATP dose response of 0.125 uM purified ATeam1.03 or ATeam1.03YEMK sensor at room temperature in 50 mM MOPS-KOH pH 7.3, 50 mM KCl, 0.5 mM free Mg2+, 0.05% Triton-X100 (4 to 9 replicates).; assay type: binding; conditions: SD, n = 4; read-out: ATP Affinity Kapp (ATeam1.03 and ATeam1.03YEMK)
T10 construct: gene atpC; epsilon subunit flanked by mseCFP and mVenus; polyhistidine-tagged, expressed in E. coli BL21(DE3)
Method: as §1
(§5) Figure 4 All ATeam1.03 R103 and R115 single and double mutants cause loss of ATP affinity. ATP dose responses were measured using purified protein in solution. […] (A) Example fluorescence emission spectra for (A) wildtype ATeam1.03 and (B) the non-binding R103A/R115A double mutant.
(§6) Figure 5 ATeam1.03YEMK R103 and R115 single and double mutants tune ATP affinity. ATP dose responses were measured using purified protein in solution. […] (A) Example fluorescence emission spectra for (A) wildtype ATeam1.03YEMK, (B) the R103A/R115A double mutant, and (C) the R103A/R115E double mutant. ATP dose response curves for (D) single and (E) double mutants. Apparent dissociation constants are summarized in (F).

ATeam1.03YEMK (WT) = target: T11, ATeam1.03YEMK (WT) (Bacillus subtilis, UniProt P37812, G131E/INS132K/K132M/M60Y); test: as above; assay type: binding; conditions: SD, n = 4; read-out: ATP Affinity Kapp (ATeam1.03 and ATeam1.03YEMK)
T11 construct: gene atpC; epsilon subunit with four interface residues exchanged to match Bacillus sp; PS3, flanked by mseCFP and mVenus; polyhistidine-tagged
Method: as §1, §5, §6

[18] = target: T12, ATeam1.03YEMK R103A/R115E; test: as above; assay type: binding; conditions: SD, n = 4; read-out: ATP Affinity Kapp (ATeam1.03 and ATeam1.03YEMK)
T12 construct: YEMK epsilon subunit flanked by mseCFP and mVenus; polyhistidine-tagged
Method: as §1, §5, §6

[19] = target: T13, ATeam1.03YEMK R103E/R115A; test: as above; assay type: binding; conditions: SD, n = 4; read-out: ATP Affinity Kapp (ATeam1.03 and ATeam1.03YEMK)
T13 construct: YEMK epsilon subunit flanked by mseCFP and mVenus; polyhistidine-tagged
Method: as §1, §5, §6

[20] = target: T14, ATeam1.03YEMK R103E/R115E; test: as above; assay type: binding; conditions: SD, n = 4; read-out: ATP Affinity Kapp (ATeam1.03 and ATeam1.03YEMK)
T14 construct: YEMK epsilon subunit flanked by mseCFP and mVenus; polyhistidine-tagged
Method: as §1, §5, §6

ATeam1.03YEMK R115A = target: T15, ATeam1.03YEMK R115A (Bacillus subtilis, UniProt P37812, G131E/INS132K/K132M/M60Y/R115A); test: as above; assay type: binding; conditions: SD, n = 4; read-out: ATP Affinity Kapp (ATeam1.03 and ATeam1.03YEMK)
T15 construct: gene atpC; YEMK epsilon subunit flanked by mseCFP and mVenus; polyhistidine-tagged
Method: as §1, §5, §6

ATeam1.03YEMK R115E = target: T16, ATeam1.03YEMK R115E (Bacillus subtilis, UniProt P37812, G131E/INS132K/K132M/M60Y/R115E); test: as above; assay type: binding; conditions: SD, n = 4; read-out: ATP Affinity Kapp (ATeam1.03 and ATeam1.03YEMK)
T16 construct: gene atpC; YEMK epsilon subunit flanked by mseCFP and mVenus; polyhistidine-tagged
Method: as §1, §5, §6

ATeam3.10 R103E/R115E [21] = target: T9, ATeam3.10 R103E/R115E; test: Steady-state FRET ratio ATP dose response of 0.125 uM purified ATeam3.10 sensor at room temperature in 50 mM MOPS-KOH pH 7.3, 50 mM KCl, 0.5 mM free Mg2+, 0.05% Triton-X100 (4 to 9 replicates).; assay type: binding; set-up: gene uncC; epsilon subunit flanked by mseCFP and mVenus; polyhistidine-tagged; conditions: SD, n = 4; read-out: ATP Affinity Kapp
Method: as §1, §3, §4

T5 sequence (A0A0M5MQR7 entry or part of it R103E): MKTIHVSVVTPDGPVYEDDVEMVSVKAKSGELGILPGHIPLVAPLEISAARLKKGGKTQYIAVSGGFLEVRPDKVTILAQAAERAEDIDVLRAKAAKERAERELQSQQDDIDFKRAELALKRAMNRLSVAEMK
T8 sequence (A0A0M5MQR7 entry or part of it R115E): as the sequence (A0A0M5MQR7 entry or part of it R103E) above, with E103R, R115E counted along it
T6 sequence (A0A0M5MQR7 entry or part of it R103E/R115A): as the sequence (A0A0M5MQR7 entry or part of it R103E) above, with R115A counted along it
T4 sequence (A0A0M5MQR7 entry or part of it R103A/R115E): as the sequence (A0A0M5MQR7 entry or part of it R103E) above, with E103A, R115E counted along it
T7 sequence (A0A0M5MQR7 entry or part of it R115A): as the sequence (A0A0M5MQR7 entry or part of it R103E) above, with E103R, R115A counted along it
T2 sequence (A0A0M5MQR7 entry or part of it R103A): as the sequence (A0A0M5MQR7 entry or part of it R103E) above, with E103A counted along it
T1 sequence (A0A0M5MQR7 1-133): as the sequence (A0A0M5MQR7 entry or part of it R103E) above, with E103R counted along it
T3 sequence (A0A0M5MQR7 entry or part of it R103A/R115A): as the sequence (A0A0M5MQR7 entry or part of it R103E) above, with E103A, R115A counted along it
T9 sequence (A0A0M5MQR7 entry or part of it R103E/R115E): as the sequence (A0A0M5MQR7 entry or part of it R103E) above, with R115E counted along it
T15 sequence (P37812 whole entry, stated change not applied): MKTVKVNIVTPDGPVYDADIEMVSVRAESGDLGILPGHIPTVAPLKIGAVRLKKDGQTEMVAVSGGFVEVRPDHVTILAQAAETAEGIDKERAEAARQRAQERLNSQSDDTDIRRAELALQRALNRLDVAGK
T10 sequence (P37812 whole entry): as the sequence (P37812 whole entry, stated change not applied) above
T16 sequence (P37812 whole entry, stated change not applied): as above
T11 sequence (P37812 whole entry, stated change not applied): as above

SMILES: Nc1ncnc2c1ncn2[C@@H]1O[C@H](COP(=O)(O)OP(=O)(O)O)[C@@H](O)[C@H]1O [ADP, Adenosine diphosphate]
- Kd (ATeam3.10 (WT) [1]): 130 ± 10 µM
- Kd (ATeam3.10 R103A [2]): 82 ± 6 µM
- Kd (ATeam3.10 R103A/R115A [3]): 32 ± 5 µM
- Kd (ATeam3.10 R103A/R115E [4]): 17 ± 1 µM
- Kd (ATeam3.10 R103E [5]): 68 ± 3 µM
- Kd (ATeam3.10 R103E/R115A [6]): 40 ± 2 µM
- Kd (ATeam3.10 R115A [7]): 74 ± 7 µM
- Kd (ATeam3.10 R115E [8]): 29 ± 2 µM
- Kd (ATeam3.10 R103E/R115E [9]): 51 ± 6 µM

SMILES: O=CC[C@@H](O)[C@H](O)[C@H](O)CO [DG, 2-deoxyglucose]
- effect on cytosolic ATP (HEK293 cells; HEK293, 10 mM glucose): did not cause a drastic loss of ATP
- effect on cytosolic ATP (HEK293 cells; HEK293, absence of glucose): did cause ATP depletion

SMILES: Nc1ncnc2c1ncn2[C@@H]1O[C@H](COP(=O)(O)OP(=O)(O)OP(=O)(O)O)[C@@H](O)[C@H]1O [ATP, Adenosine triphosphate]
- Kd (ATeam3.10 (WT) [10]): 0.8 µM
- Kd (ATeam3.10 R103A [11]): 0.8 µM
- Kd (ATeam3.10 R103A/R115A [12]): 0.2 µM
- Kd (ATeam3.10 R103A/R115E [13]): 0.2 µM
- Kd (ATeam3.10 R103E [14]): 0.6 µM
- Kd (ATeam3.10 R103E/R115A [15]): 0.7 µM
- Kd (ATeam3.10 R115A [16]): 0.6 µM
- Kd (ATeam3.10 R115E [17]): 0.3 µM
- Kd (ATeam1.03 (WT)): 1000 µM
- Kd (ATeam1.03YEMK (WT)): 200 µM
- Kd [18]: 1900 µM
- Kd [19]: 1900 µM
- Kd [20]: 2200 µM
- Kd (ATeam1.03YEMK R115A): 1800 µM
- Kd (ATeam1.03YEMK R115E): 700 µM
- Kd (ATeam3.10 R103E/R115E [21]): 0.8 µM
